Test results reported in paper PMC10447463, “Data-mining unveils structure–property–activity correlation of viral infectivity enhancing self-assembling peptides” (Nature Communications, 2023).
Where two headings read alike, the source gives them in different places.

What was measured:
[1] = assay type: physicochemical
Summary of the method: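 Fibrils (1 mg/mL solution) were mixed with 50 µM ThT in PBS for 15 min at RT, and fluorescence was read at λex 440/λem 488 nm against a PBS blank, as a triplicate mean ± SD. Zeta potential came from electrophoretic mobility (Smoluchowski) after 1 d aggregation at 1 mg/mL in PBS pH 7.4, diluted into 1 mM KCl.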

[2] = assay type: physicochemical; details: STD prep
[3] = ThT fluorescence relative to blank (42.1851851851852 a.u.)
[4] = ThT fluorescence relative to blank, blank = 42.1851851851852
[5] = relative to blank 42.1851851851852 a.u.

| Substance | Tht rel to blank (42.1851851851852) [1, 3] | Tht rel to blank (42.1851851851852) [1, 4] | Tht category (> 1.5 to blank = +) ([1]; category 1/0) | TEM: 1= fibrils, 0= aggregates (micelle), 0.5 = aggregates and fibrils, -1 = nothing obersved, STD prep [2] | Tht rel to blank (42.1851851851852) [1, 5] | Tht category (> 1.5 to blank = +) ([1]; FigS26) | TEM: 1= fibrils, 0= aggregates (micelle), 0.5 = aggregates and fibrils, -1 = nothing obersved, STD prep ([2]; FigS26) |
| --- | --- | --- | --- | --- | --- | --- | --- |
| KFKQFFNMWQ [JG5] | 1.589 | 1.589 | 0 (ThT-inactive (N-Fold <2)) | 0 | – | – | – |
| KIKIQINMW [JGB1 /TM85] | 4.61 | – | 1 (ThT. Cat is 1, if Rel. ThT >2) | 1 | 4.61 | – | – |
| QCKIKIQINM [CK2] | 2.548 | – | 1 (ThT. Cat is 1, if Rel. ThT >2) | 1 | 2.548 | – | – |
| HHHHKIKIKIKIYYYY [TM6] | 9.935 | 9.935 | 1 (ThT. Cat is 1, if Rel. ThT >2) | 0.5 | – | – | – |
| QCKIKQII [CK6] | 2.961 | 2.961 | 1 (ThT. Cat is 1, if Rel. ThT >2) | 1 | 2.961 | – | – |
| QCKIKQIINM [CK5] | 23.32 | 23.32 | 1 (ThT. Cat is 1, if Rel. ThT >2) | 1 | 23.32 | – | – |
| KIKIQINMWQ [JG1] | 5.939 | – | 1 (ThT. Cat is 1, if Rel. ThT >2) | 1 | 5.939 | 1 (Tht category (> 1.5 to blank = +)) | 1 |
| CKWKWQW [KB4] | – | – | 0 (ThT-inactive (N-Fold <2)) | 0 | 1.321 | – | – |
| CQFQFQF [QBL4] | – | – | 1 (ThT. Cat is 1, if Rel. ThT >2) | 1 | 13.03 | – | – |
| CKAKAQANM [BL9] | 1.249 | – | 0 (ThT-inactive (N-Fold <2)) | 0.5 | 1.249 | – | – |
| KIKIQI [JJA4] | 1.097 | – | 0 (ThT-inactive (N-Fold <2)) | 0.5 | 1.097 | – | – |
| QCKFKQFF [CK12] | 2.349 | 2.349 | 1 (ThT. Cat is 1, if Rel. ThT >2) | 1 | 2.349 | – | – |
| CKFKQFF [CK15] | 1.34 | 1.34 | 0 (ThT-inactive (N-Fold <2)) | 0.5 | 1.34 | – | – |
| RGDCKIKIQINM [TM45] | 1.835 | – | 0 (ThT-inactive (N-Fold <2)) | 1 | 1.835 | 0 (Tht category (> 1.5 to blank = +)) | – |
| CKFKQFFNMWQ [CK13] | 27.7 | 27.7 | 1 (ThT. Cat is 1, if Rel. ThT >2) | 1 | 27.7 | – | – |
| KLKQLL [KM27 / psis14] | 1.089 | 1.089 | 0 (ThT-inactive (N-Fold <2)) | 0.5 | – | – | – |

| Substance | Tht rel to blank (42.1851851851852) [1, 3] | Tht rel to blank (42.1851851851852) [1, 4] | Tht category (> 1.5 to blank = +) ([1]; category 1/0) | TEM: 1= fibrils, 0= aggregates (micelle), 0.5 = aggregates and fibrils, -1 = nothing obersved, STD prep [2] | Tht rel to blank (42.1851851851852) [1, 5] | Tht category (> 1.5 to blank = +) ([1]; FigS26) | TEM: 1= fibrils, 0= aggregates (micelle), 0.5 = aggregates and fibrils, -1 = nothing obersved, STD prep ([2]; FigS26) |
| --- | --- | --- | --- | --- | --- | --- | --- |
| CKAKAQA [TM155] | 1.227 | – | 0 (ThT-inactive (N-Fold <2)) | 0.5 | 1.227 | – | – |
| CKAKAQANMWQ [BL8] | 1.86 | – | 0 (ThT-inactive (N-Fold <2)) | 0.5 | 1.86 | – | – |
| CKIKIQINM [MG2] | 2.648 | – | 1 (ThT. Cat is 1, if Rel. ThT >2) | 1 | 2.648 | – | – |
| QCKAKAQA [CK24] | 1.319 | – | 0 (ThT-inactive (N-Fold <2)) | 0.5 | 1.319 | – | – |
| KIKIQIC [TM112 / CN11] | 4.12 | 4.12 | 1 (ThT. Cat is 1, if Rel. ThT >2) | 1 | – | 1 (Tht category (> 1.5 to blank = +)) | – |
| KIKIKIKIYYYY [JR7] | 1.259 | – | – | – | – | – | – |
| CKIKQIINMWQ [MG5a / CK17] | 48.46 | 48.46 | 1 (ThT. Cat is 1, if Rel. ThT >2) | 1 | 48.46 | – | – |
| KAKAQANMWQ [JG3] | 0.9886 | – | 0 (ThT-inactive (N-Fold <2)) | 0.5 | 0.9886 | 0 (Tht category (> 1.5 to blank = +)) | – |
| CHLHLQL [CN9] | – | – | 1 (ThT. Cat is 1, if Rel. ThT >2) | 0.5 | 3.241 | – | – |
| KFKFKFQF [TG18] | 41.89 | 41.89 | 1 (ThT. Cat is 1, if Rel. ThT >2) | 1 | – | – | – |
| CKFKFQFNM [BL3] | 2.383 | – | 1 (ThT. Cat is 1, if Rel. ThT >2) | 1 | 2.383 | – | – |
| KIKIKIQINMWQ [VH9] | 1.586 | – | – | – | – | – | – |
| CKIKIQI [MG3b] | 3.939 | – | 1 (ThT. Cat is 1, if Rel. ThT >2) | 1 | 3.939 | – | 1 |
| RGDSKIKIQIC [TM113 / RC11] | 13.8 | – | – | – | – | – | – |
| CKFKFQFW [TM72] | 1.802 | – | – | – | – | – | – |
